Source: patent US20100075965A1, “PI3 KINASE INHIBITORS AND METHODS OF THEIR USE” (Novartis AG, priority 2006, published 2010)
Where two headings read alike, the source gives them in different places.

Columns and labels:
PI3 kinase isoform alpha = biological target: T1, PI3 kinase isoform alpha (Homo sapiens, UniProt P42336); experiment: PI3K scintillation proximity kinase assay, alpha isoform; assay type: biochemical
T1 construct: made in house
Method: (§1) Activity of compounds in Table 4, expressed as Ki the dissociation constant for inhibition binding, were determined using the following test procedures.
(§2) Baculovirus expressing different fragments of PI3Kγ fused to GST have been previously described by Stoyanova, S., Bulgarelli-Leva, G., Kirsch, C., Hanck, T., Klinger, R., Wetzker, R., Wymann, M. P. (1997) Lipid- and protein kinase activities of G protein-coupled PI 3-kinase gamma: structure-activity analysis and interactions with wortmannin. Biochem. J., 324:489. Residues 38-1102 of human PI3Kγ are subcloned into the BamH1 and EcoR1 sites of the transfer vector pAcG2T (Pharmingen) to create a GST-P13Kγ lacking the first 37 residues of PI3Kγ. To express the recombinant protein, Sf9 (Spodoptera frugiperda 9) insect cells are routinely maintained at densities between 3×10^5 and 3×10^6 cells/ml in serum containing TNMFH medium (Sigma). Sf9 cells, at a density of 2×10^6 are infected with human GST-PI3γΔ34 baculovirus at a multiplicity of infection (m.o.i.) of 1 for 72 hours. The infected cells are harvested by centrifugation at 1400 g for 4 minutes at 4° C. and the cell pellets are frozen at −80° C. Both Sf9 and Sf21 cells work equally well. […] Cell lysate (supernatant) is added (usually as 50 ml lysate to 1 ml GST resin in 50 ml tubes) and gently rotated on a mixer at 4° C. for 2-3 hours. The unbound flow through sample is collected by centrifugation at 1000 g for 5 minutes at 4° C. using a DENLEY™ centrifuge. The 1 ml GST resin containing bound material is transferred to a 15 ml FALCON™ centrifuge tube for subsequent washing and elution steps. Firstly a series of 3 cycles of washings (mixing by gentle inversion) is performed with 15 ml ice cold wash Buffer A (50 mM Tris-HCl pH 7.5, 1% Triton X-100, 2 mM DTT) interspersed with centrifugation at 1000 g for 5 minutes at 4° C. A final single wash step is performed with 15 ml ice cold wash Buffer B (50 mM Tris-HCl pH 7.5, 2 mM DTT) and then centrifuged at 1000 g for 5 minutes at 4° C. The washed GST resin is finally eluted with 4 cycles of 1 ml ice cold elution buffer (50 mM Tris-HCl pH 7.5, 10 mM reduced glutathione, 2 mM DTT, 150 mM NaCl, 1 mM NaF, 50% ethylene glycol and protease inhibitors) interspersed with centrifugation at 1000 g for 5 minutes at 4° C. Samples are aliquoted and stored at −20° C. The isoforms in Table 4 were similarly purified.
(§3) An in vitro kinase assay was established that measures the transfer of the terminal phosphate of adenosine triphosphate to phosphatidylinositol. The kinase reaction is performed in a white 96 well microtitre plate as a Scintillation Proximity Assay. […] The plate is incubated at room temperature for 60 minutes and the reaction terminated by the adding 150 μl of WGA-bead stop solution (40 mM Tris, 200 mM NaCl, 2 mM EGTA, 1.3 mM ethylene diamine tetraacetic acid (EDTA), 2.6 μM ATP and 0.5 mg of Wheat Germ Agglutinin-SPA beads (Amersham Biosciences) to each well. The plate is sealed, incubated at room temperature for 60 minutes, centrifuged at 1200 rpm and then counted for 1 minute using a scintillation counter. Total activity is determined by adding 10 μl of 5% dimethylsulphoxide (DMSO) and non-specific activity is determined by adding 10 μl 50 mM EDTA in place of the test compound.

PI3 kinase isoform delta = biological target: T2, PI3 kinase isoform delta (Homo sapiens, UniProt O00329); experiment: PI3K scintillation proximity kinase assay, delta isoform; assay type: biochemical
T2 construct: made in house
T2 sequence (O00329 1-1044): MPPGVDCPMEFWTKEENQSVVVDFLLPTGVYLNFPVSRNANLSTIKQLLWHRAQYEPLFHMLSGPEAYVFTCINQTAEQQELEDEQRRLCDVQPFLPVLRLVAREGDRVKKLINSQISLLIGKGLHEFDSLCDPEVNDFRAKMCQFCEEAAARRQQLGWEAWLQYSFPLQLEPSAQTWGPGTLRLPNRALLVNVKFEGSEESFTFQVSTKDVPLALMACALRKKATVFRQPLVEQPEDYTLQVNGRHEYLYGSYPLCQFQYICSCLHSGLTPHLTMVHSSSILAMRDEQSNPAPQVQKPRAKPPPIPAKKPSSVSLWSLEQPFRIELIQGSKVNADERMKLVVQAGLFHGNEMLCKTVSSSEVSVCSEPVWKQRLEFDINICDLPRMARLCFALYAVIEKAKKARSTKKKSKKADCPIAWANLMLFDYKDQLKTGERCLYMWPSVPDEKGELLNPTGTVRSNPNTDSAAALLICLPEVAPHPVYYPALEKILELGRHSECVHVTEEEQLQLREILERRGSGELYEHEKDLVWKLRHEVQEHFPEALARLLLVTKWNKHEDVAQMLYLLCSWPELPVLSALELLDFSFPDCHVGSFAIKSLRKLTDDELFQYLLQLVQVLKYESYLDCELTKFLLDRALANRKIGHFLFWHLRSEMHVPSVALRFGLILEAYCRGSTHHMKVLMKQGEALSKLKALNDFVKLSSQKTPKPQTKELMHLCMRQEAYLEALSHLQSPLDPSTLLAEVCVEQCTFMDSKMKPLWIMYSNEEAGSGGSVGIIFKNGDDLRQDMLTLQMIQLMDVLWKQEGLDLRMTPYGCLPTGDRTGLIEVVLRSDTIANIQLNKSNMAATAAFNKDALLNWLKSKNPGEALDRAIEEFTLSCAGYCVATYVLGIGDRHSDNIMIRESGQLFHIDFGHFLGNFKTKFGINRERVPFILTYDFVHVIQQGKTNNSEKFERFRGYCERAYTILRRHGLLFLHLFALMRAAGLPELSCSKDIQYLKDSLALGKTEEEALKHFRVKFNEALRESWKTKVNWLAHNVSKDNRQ
Method: as §1, §2, §3

human PI3Kγ (GST-p110γ) = biological target: T3, human PI3Kγ (GST-p110γ) (Homo sapiens, UniProt P48736); experiment: PI3K scintillation proximity kinase assay, gamma isoform; assay type: biochemical; conditions: PI3 kinase isoform gamma
T3 construct: Residues 38-1102 of human PI3Kγ are subcloned into the BamH1 and EcoR1 sites of the transfer vector pAcG2T; made in house; host or cells: Sf9 (Spodoptera frugiperda) insect cells, baculovirus
Method: as §1, §2, §3

PI3 kinase isoform beta = biological target: T4, PI3 kinase isoform beta (Homo sapiens, UniProt P42338); experiment: PI3K scintillation proximity kinase assay, beta isoform; assay type: biochemical
T4 construct: made in house
Method: as §1, §2, §3

[1] = system: subcutaneous A2780 ovarian xenograft tumors; experiment: A2780 human ovarian xenograft model in nude mice; assay type: in vivo; conditions: 30 mg/kg daily p.o., day 6, p<0.001 vs vehicle (ANOVA)
Method: Female nude mice (6-8 weeks of age; Charles River) were implanted subcutaneously with A2780 (5×10^6 cells/mouse in 0.1 ml HBSS) cells into the right flank. […] Tumor volumes were measured (SE is the standard error of the mean).
Tumors from mice treated with vehicle were also harvested as controls.

[2] = system: pSer473-Akt in A2780 cells; experiment: pSer473 Akt assay to monitor PI3K pathway in A2780 cells (MSD); assay type: cell-based; conditions: Homo sapiens
In short: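 EC50 is derived from percent inhibition of Akt Ser473 phosphorylation, normalised to total Akt and compared with DMSO-only wells, read by MSD immunoassay. Lysates came from A2780 cells plated overnight at 15,000/well and exposed to compound for one hour at 37 °C.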

A2780 cells = experiment: Viability assay in A2780 (Cell Titer Glo); assay type: cell-based, human; conditions: Homo sapiens
In short: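 EC50 values come from Cell Titer Glo luminescence after 72 hrs of compound exposure at 37° C, run in duplicate. A2780 cells were plated at 1,000 per well in DMEM with 10% FBS and dosed with 3-fold serial dilutions.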

PI3 K Alpha = PI3 K Alpha (Homo sapiens, UniProt P42336); experiment: PI3 kinase phosphorylation assays (homogenous solution phase, one step solid phase, ATP depletion/KinaseGlo); assay type: biochemical
[3] = A2780 cells, read-out: A2780 pAKT 473 EC50
[4] = A2780 cells, read-out: A2780 Cell prolif. EC50

T4 sequence (P42338 whole entry, canonical isoform): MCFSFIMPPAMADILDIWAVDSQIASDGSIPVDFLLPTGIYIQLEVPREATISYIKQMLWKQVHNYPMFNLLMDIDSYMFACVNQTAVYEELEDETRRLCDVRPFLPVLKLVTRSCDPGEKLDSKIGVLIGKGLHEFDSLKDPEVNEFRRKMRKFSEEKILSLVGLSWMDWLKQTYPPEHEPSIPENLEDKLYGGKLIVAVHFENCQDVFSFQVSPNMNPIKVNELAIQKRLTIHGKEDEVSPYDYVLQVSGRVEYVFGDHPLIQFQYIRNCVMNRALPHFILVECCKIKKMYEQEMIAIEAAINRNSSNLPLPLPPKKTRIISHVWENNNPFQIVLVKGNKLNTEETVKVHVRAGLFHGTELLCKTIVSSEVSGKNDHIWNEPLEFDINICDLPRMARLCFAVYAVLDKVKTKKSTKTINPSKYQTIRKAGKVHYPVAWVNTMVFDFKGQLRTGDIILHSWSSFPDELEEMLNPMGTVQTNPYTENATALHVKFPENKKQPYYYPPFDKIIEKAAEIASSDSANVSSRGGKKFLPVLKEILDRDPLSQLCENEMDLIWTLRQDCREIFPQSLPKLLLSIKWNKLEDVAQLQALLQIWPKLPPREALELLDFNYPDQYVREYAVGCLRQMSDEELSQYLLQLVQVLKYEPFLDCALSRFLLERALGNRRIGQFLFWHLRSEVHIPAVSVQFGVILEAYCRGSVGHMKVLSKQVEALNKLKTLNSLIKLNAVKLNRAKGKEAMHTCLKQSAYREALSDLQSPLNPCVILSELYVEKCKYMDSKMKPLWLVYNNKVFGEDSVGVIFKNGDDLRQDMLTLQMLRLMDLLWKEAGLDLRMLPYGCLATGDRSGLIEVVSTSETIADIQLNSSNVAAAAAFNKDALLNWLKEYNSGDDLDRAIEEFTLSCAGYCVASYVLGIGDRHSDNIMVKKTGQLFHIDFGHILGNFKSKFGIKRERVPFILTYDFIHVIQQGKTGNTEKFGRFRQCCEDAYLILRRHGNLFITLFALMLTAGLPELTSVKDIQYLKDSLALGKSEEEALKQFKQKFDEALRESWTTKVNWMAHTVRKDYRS
T3 sequence (P48736 38-1102): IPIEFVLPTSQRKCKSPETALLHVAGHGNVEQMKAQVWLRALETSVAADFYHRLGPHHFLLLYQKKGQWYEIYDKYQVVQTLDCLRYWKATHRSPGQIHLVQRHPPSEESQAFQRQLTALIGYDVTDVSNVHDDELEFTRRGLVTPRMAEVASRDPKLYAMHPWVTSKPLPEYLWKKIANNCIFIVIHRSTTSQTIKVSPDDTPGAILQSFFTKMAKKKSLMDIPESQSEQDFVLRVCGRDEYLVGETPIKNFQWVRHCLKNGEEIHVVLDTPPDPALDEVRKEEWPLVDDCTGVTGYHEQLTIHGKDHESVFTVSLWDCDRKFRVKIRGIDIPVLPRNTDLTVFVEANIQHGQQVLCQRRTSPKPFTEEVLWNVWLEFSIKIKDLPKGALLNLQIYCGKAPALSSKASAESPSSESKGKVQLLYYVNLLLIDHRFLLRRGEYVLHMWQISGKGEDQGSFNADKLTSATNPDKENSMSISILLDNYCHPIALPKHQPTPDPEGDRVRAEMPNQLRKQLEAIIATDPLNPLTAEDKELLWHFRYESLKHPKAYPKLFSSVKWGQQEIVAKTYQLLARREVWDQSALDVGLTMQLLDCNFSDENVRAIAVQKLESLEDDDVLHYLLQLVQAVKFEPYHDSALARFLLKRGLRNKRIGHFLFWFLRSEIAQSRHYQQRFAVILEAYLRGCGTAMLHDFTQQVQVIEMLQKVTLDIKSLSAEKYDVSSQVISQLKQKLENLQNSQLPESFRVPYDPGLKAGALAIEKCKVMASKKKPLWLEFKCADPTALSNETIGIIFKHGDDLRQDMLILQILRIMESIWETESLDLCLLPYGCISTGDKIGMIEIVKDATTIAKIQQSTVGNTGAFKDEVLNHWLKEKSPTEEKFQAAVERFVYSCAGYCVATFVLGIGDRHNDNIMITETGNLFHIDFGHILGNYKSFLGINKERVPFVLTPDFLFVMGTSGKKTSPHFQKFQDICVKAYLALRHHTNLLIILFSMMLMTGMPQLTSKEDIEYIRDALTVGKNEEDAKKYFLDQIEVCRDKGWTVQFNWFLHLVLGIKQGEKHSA
Chain of PI3 K Alpha (P42336 whole entry): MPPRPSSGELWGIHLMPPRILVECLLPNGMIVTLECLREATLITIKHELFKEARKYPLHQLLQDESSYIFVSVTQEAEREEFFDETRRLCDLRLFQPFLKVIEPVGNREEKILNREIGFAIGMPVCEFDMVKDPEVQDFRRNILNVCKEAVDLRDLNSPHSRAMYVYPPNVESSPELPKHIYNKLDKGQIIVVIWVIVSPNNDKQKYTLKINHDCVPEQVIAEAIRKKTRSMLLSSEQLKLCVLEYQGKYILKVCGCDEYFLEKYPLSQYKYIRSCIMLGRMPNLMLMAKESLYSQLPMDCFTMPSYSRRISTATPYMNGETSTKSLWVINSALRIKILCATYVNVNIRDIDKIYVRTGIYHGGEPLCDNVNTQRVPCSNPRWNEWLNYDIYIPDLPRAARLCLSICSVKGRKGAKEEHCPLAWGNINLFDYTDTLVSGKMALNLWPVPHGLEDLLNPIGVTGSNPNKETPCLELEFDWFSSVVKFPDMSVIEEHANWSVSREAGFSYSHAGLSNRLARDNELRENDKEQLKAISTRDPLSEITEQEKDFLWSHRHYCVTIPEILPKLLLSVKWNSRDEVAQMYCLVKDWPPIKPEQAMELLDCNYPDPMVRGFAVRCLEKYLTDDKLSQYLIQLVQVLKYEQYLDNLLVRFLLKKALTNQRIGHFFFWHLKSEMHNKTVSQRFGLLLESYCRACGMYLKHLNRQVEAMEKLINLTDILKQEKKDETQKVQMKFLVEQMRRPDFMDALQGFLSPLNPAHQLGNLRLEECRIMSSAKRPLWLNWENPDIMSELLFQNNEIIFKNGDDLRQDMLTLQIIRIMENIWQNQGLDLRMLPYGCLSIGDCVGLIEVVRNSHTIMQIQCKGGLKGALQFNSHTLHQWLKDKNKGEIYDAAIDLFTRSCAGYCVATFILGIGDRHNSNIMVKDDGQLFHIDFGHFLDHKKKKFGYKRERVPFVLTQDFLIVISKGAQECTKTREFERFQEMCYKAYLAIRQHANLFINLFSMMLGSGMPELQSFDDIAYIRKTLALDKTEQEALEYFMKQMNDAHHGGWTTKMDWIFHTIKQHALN
Chain of PI3 K Alpha (P27986 whole entry partner): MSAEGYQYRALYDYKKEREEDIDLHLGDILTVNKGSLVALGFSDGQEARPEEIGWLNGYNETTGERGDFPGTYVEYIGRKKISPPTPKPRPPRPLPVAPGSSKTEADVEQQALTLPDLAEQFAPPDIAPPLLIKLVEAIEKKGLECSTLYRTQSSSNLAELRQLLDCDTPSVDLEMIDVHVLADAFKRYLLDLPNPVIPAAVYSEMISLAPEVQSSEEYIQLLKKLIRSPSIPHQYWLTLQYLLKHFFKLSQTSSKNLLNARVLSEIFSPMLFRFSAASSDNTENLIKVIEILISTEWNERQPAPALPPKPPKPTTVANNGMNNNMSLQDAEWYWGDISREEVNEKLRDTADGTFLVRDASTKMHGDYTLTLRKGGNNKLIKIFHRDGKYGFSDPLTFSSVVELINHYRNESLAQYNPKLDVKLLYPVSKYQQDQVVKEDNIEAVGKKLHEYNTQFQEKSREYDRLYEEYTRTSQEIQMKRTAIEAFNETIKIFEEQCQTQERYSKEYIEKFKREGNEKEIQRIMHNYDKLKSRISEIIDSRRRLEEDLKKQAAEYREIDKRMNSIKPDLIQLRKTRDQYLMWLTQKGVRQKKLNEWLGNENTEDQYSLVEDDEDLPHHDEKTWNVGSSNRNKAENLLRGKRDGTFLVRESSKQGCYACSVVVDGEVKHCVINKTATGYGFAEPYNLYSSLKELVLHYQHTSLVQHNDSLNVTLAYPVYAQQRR
T1 sequence (P42336 whole entry, canonical isoform): as the sequence (P42336 whole entry) above

Ki (PI3 kinase isoform alpha) [nM]	Ki (PI3 kinase isoform delta) [nM]	Ki (human PI3Kγ (GST-p110γ)) [nM]	Ki (PI3 kinase isoform beta) [nM]	EC50 [2, 3] [µM]	EC50 (A2780 cells; [4]) [µM]	IC50 (PI3 K Alpha; read-out: PI3K Alpha IC50) [nM]	SMILES	also measured
< 1000	< 1000	< 1000	< 1000				CCn1nnc(CCNC(=O)Nc2cn3cc(-c4cnc(N)c(C(F)(F)F)c4)ccc3n2)n1 [Example 3-1, 1-[6-(6-Amino-5-trifluoromethyl-pyridin-3-yl)-imidazo[1,2-a]pyridin-2-yl]-3-[2-(2-ethyl-2H-tetrazol-5-yl)-ethyl]-urea]	
< 1000	< 1000	< 1000	< 1000				CC(C)n1nnc(CCNC(=O)Nc2cn3cc(-c4cnc(N)c(C(F)(F)F)c4)ccc3n2)n1 [Example 3-2, 1-[6-(6-Amino-5-trifluoromethyl-py-ridin-3-yl)-imidazo[1,2-a]pyridin-2-yl]-3-[2-(2-isopropyl-2H-tetrazol-5-yl)-ethyl]-urea]	
< 10000	< 1000	< 1000	< 1000				CC(C)n1nnc(CCNC(=O)Nc2cn3cc(-c4ccc(N)nc4)ccc3n2)n1 [Example 3-3, 1-[6-(6-Amino-pyridin-3-yl)-imidazo[1,2-a]pyridin-2-yl]-3-[2-(2-isopropyl-2H-tetrazol-5-yl)-ethyl]-urea]	
< 1000	< 1000	< 1000	< 1000				CCc1nnn(CCNC(=O)Nc2cn3cc(-c4cnc(N)c(C(F)(F)F)c4)ccc3n2)n1 [Example 3-4, 1-[6-(6-Amino-5-trifluoromethyl-py-ridin-3-yl)-imidazo[1,2-a]pyridin-2-yl]-3-[2-(5-ethyl-tetrazol-2-yl)-ethyl]-urea]	
< 1000	< 1000	< 1000	< 1000				Nc1ncc(-c2ccc3nc(NC(=O)NCCn4nnc(C5CC5)n4)cn3c2)cc1C(F)(F)F [Example 3-5, 1-[6-(6-Amino-5-trifluoromethyl-py-ridin-3-yl)-imidazo[1,2-a]pyridin-2-yl]-3-[2-(5-cyclopropyl-tetrazol-2-yl)-ethyl]-urea]	

The remaining lines, values behind:

SMILES	Ki (PI3 kinase isoform alpha) [nM]	Ki (PI3 kinase isoform delta) [nM]	Ki (human PI3Kγ (GST-p110γ)) [nM]	Ki (PI3 kinase isoform beta) [nM]	EC50 [2, 3] [µM]	EC50 (A2780 cells; [4]) [µM]	IC50 (PI3 K Alpha; read-out: PI3K Alpha IC50) [nM]	also measured
CC(=O)Nc1cn2cc(-c3cnc(N)c(OC(C)C(F)(F)F)n3)ccc2n1 (stereo not shown) [Example 57, N-(6-(5-amino-6-(1,1,1-trifluoropropan-2-yloxy)pyrazin-2-yl)imidazo[1,2-a]pyridin-2-yl)acetamide]					< 1			tumor growth inhibition [1]: 79%
CC(=O)Nc1cn2cc(-c3cnc(N)c(C)c3)ccc2n1 [Example 208, N-(6-(6-amino-5-methylpyridin-3-yl)imidazo[1,2-a]pyridin-2-yl)acetamide]					< 1	< 10	< 1000	
CC(=O)Nc1nc2ccc(-c3cnc(N)c(C(F)(F)F)c3)cn2c1C#CCN1CCOCC1 [Example 213, N-(6-(6-amino-5-(trifluoromethyl)pyridin-3-yl)-3-(3-morpholino-prop-1-ynyl)imidazo[1,2-a]pyridin-2-yl)acetamide]					< 10	< 10	< 1000	
NCC(=O)Nc1cn2cc(-c3cnc(N)c(C(F)(F)F)c3)ccc2n1 [Example 215, 2-amino-N-(6-(6-amino-5-(trifluoromethyl)pyridin-3-yl)imidazo[1,2-a]pyridin-2-yl)acetamide]					< 10	< 10	< 1000	
CCN(CC)C(=O)c1cc(-c2ccc3nc(NC(C)=O)cn3c2)cnc1N [Example 218, 5-(2-acetamido-imidazo[1,2-a]pyridin-6-yl)-2-amino-N,N-diethyl-nicotinamide]					< 1	< 10	< 1000	
CC(=O)Nc1cn2cc(-c3cnc(N)c(C#N)c3)ccc2n1 [Example 235, N-(6-(6-amino-5-cyanopyridin-3-yl)imidazo[1,2-a]pyridin-2-yl)acetamide]					< 10	< 10	< 1000	
CC(=O)Nc1nc2ccc(-c3cnc(N)c(C(F)(F)F)c3)cn2c1C#Cc1ccccn1 [Example 241, N-(6-(6-amino-5-(trifluoromethyl)pyridin-3-yl)-3-(pyridin-2-ylethnyl)imi-dazo[1,2-a]pyridin-2-yl)acetamide]								EC50 (A2780 cells; A2780, read-out: A2780 Cell prolif. EC50): < 10 µM; EC50 ([2]; A2780, read-out: A2780 pAKT 473 EC50): < 10 µM; IC50 (PI3 K Alpha): < 1000 nM
